Test results from patent US20150045610A1, “METHOD OF MODIFYING SPERMATOGENESIS, SPERMIOGENESIS AND/OR FERTILITY IN MAMMALS” (Monell Chemical Senses Center, priority 2012, published 2015).

Molecular target: T1, humanized mhT1R3 (Homo sapiens, UniProt Q7RTX0, A109T/A120V/A176D/A197V/A198V/A228S/A231N/A248T/A280V/A282S/A302S/A412V/A417V/A46T/A537T/C375D/D124S/D249S/D250G/D364H/D419E/D470T/D491G/D88A/DEL352-352/DEL488-489/E172D/E199T/E203N/E217D/E356N/E45S/E481Q/E505D/E525K/E545Q/F540P/F555L/G168S/G205S/G311T/G314N/G355L/G360D/G414H/G438R/G439D/G463S/G50T/G542N/H261R/H278R/H281Y/H332P/I485M/I536F/INS376MLQNLSSG/K32Q/K339E/K422L/K494V/K86G/L173R/L245Q/L272V/L29F/L354S/L385Q/L433M/L458M/L483S/L71F/L74M/M151L/M315I/M318V/M31A/N285S/N386L/N532H/N68L/P112S/P246H/P335S/P416H/P420H/P441T/P60I/Q221E/Q257L/Q317R/Q330L/Q336H/Q359L/Q372R/Q418S/Q504K/Q531K/R123Q/R247D/R252Q/R291G/R30K/R357A/R443Q/R467V/R473T/R479Q/R482Q/R486Y/R498Q/R52N/R550K/R553A/R556P/R560K/R56Q/S251Q/S267K/S289H/S290H/S392A/S446A/S447E/S464P/S477T/S490P/S53Q/S559P/S58N/S67P/T195Q/T346A/T377L/T390I/T434S/T480L/T63N/V152I/V277A/V366M/V36I/V381L/V393T/V437A/V465T/V61P/W72L)
T1 construct: the extracellular domain is of mouse origin and the transmembrane and intracellular domains of human origin; mouse T1R3 extracellular domain (fusion partner replacing the human extracellular domain); expressed in transfected cells; host or cells: transgenic Line 7c mice (T1R3-/-, Gus-/-, mhT1R3+/-)
T1 sequence (Q7RTX0 with tags, fused parts or gaps L29F/R30K/M31A/K32Q/V36I/E45S/A46T/G50T/R52N/S53Q/R56Q/S58N/P60I/V61P/T63N/S67P/N68L/L71F/W72L/L74M/K86G/D88A/A109T/P112S/A120V/R123Q/D124S/M151L/V152I/G168S/E172D/L173R/A176D/T195Q/A197V/A198V/E199T/E203N/G205S/E217D/Q221E/A228S/A231N/L245Q/P246H/R247D/A248T/D249S/D250G/S251Q/R252Q/Q257L/H261R/S267K/L272V/V277A/H278R/A280V/H281Y/A282S/N285S/S289H/S290H/R291G/A302S/G311T/G314N/M315I/Q317R/M318V/Q330L/H332P/P335S/Q336H/K339E/T346A/DEL352-352/L354S/G355L/E356N/R357A/Q359L/G360D/D364H/V366M/Q372R/C375D/INS376MLQNLSSG/T377L/V381L/L385Q/N386L/T390I/S392A/V393T/A412V/G414H/P416H/A417V/Q418S/D419E/P420H/K422L/L433M/T434S/V437A/G438R/G439D/P441T/R443Q/S446A/S447E/L458M/G463S/S464P/V465T/R467V/D470T/R473T/S477T/R479Q/T480L/E481Q/R482Q/L483S/I485M/R486Y/DEL488-489/S490P/D491G/K494V/R498Q/Q504K/E505D/E525K/Q531K/N532H/I536F/A537T/F540P/G542N/E545Q/R550K/R553A/F555L/R556P/S559P/R560K limits assumed): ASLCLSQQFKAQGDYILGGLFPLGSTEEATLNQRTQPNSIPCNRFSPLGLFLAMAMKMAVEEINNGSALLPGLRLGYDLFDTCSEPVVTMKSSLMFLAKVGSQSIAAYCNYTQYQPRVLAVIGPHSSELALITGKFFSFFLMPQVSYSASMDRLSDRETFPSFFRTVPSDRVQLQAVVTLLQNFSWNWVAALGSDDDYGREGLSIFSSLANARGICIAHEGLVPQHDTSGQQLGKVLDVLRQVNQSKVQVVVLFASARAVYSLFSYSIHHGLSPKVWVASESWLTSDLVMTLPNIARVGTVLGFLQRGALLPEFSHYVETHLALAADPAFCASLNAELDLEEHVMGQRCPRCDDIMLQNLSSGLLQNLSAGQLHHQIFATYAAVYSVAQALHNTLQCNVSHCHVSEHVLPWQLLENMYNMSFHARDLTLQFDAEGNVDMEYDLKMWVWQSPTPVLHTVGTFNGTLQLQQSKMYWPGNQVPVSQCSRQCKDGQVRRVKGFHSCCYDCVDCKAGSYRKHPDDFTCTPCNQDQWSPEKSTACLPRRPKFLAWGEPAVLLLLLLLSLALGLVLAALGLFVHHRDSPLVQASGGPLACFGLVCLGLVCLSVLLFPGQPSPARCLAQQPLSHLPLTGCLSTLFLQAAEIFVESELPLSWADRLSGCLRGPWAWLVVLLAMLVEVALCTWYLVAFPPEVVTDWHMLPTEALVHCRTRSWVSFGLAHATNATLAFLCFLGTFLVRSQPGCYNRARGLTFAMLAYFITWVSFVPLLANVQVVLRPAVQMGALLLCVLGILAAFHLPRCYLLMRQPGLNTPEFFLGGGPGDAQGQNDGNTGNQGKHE
Assay: T1R3 pharmacological block with clofibrate diet (male reproduction)
Type: in vivo, mouse
Conditions: line 7c males on clofibrate diet, mated with WT females
Experimental: Matched groups (six males each) of WT and line 7c mice (expressing the chimerical mhT1R3 transgene on a T1R3/α-gustducin double-null background), 3-6 months old, were fed the indicated diets for 4-6 weeks. Each genotype was tested in two groups, one on the regular diet and one on a test diet with clofibrate. An additional group of males stayed on the test diet for another 4-6 weeks, during which time they were mated with WT females to determine whether the pharmacological intervention was effective. Then the animals were allowed to recover on the regular diet for an additional 4 weeks after the end of the treatment (half-time for total sperm turnover in mice), and again were tested for their reproductive capacity, and then their tissues were analyzed. […]
We observed spermatozoa after clofibrate treatment represent cells that were able to escape the inhibition of clofibric acid, most likely due to very fast clearance and fluctuating levels in rodents. […] Therefore, we measured sperm concentration as an indicator of efficiency of the pharmacological block and to be able to determine the concentration that results in effective sterility. We analyzed testicular morphology, sperm production, sperm motility and sperm function in in vitro fertilization after feeding these animals with the lipid lowering drug clofibrate. […]

Q: With `CC(C)(Oc1ccc(Cl)cc1)C(=O)O` [clofibric acid] as the molecule, how does the male fertility read?
A: Its male fertility is “significantly affected male fertility”.
